Reference: patent US20250352562A1, “PREVENTION OF SYMPATHETIC DENERVATION OF THE PINEAL GLAND IN CARDIAC DISEASE” (TECHNISCHE UNIVERSITÄT MÜNCHEN, priority 2022, published 2025)
“Also recorded” adds a separate entry of the source.

What was measured:
[1] = tested on: C3H/HeJ mice after bilateral removal of SCG (SCGx); assay: Assessment of diurnal rhythm after bilateral removal of SCG (SCGx); type: in vivo; details: 50 μg melatonin once intraperitoneally
[2] = tested on: nicotine-stimulated sympathetic neurons co-cultured with LPS-preactivated macrophages; assay: Co-culture of sympathetic neurons and bone marrow-derived macrophages; type: cell-based, mouse; details: CVF 20 U/ml for 90 min on LPS-preactivated macrophages; 1 μM nicotine; 48 h co-culture
Experimental: For the co-culture experiment, BMDM precursors were isolated and differentiated to macrophages as mentioned above. On day 6 of differentiation, primary neurons were isolated as described above. ˜5,000 neurons were seeded on separate wells of a 96-well Ibidi plate precoated with Laminin (0.1 mg/ml). At day 7 of differentiation, macrophages were either stimulated with PBS (control) or LPS (5 ng/ml) overnight. On the following day, LPS-preactivated macrophages were either incubated with PBS (control) or Cobra Venom Factor (CVF; 20 U/ml) for 90 min at 37° C. for complement inhibition. Afterwards, macrophages were chemically detached from the Petri dishes using Accutase and seeded around neurons. ˜10,000 macrophages were added per well. Co-culture medium was a mixture of neuronal and macrophage medium. Furthermore, part of the co-culture medium was supplemented with 1 μM Nicotine for artificial neuronal stimulation. 4 wells were cultivated per condition. One well per condition was transferred into the EVOS M7000 for live cell imaging (timelapse). […]
After 48 hours of co-culture (at 37° C. and 5% CO2), cells were fixated using 4% Paraformaldehyde. […] For quantification, two tilescans (2×2) per well were acquired using a 63× objective of a confocal microscope (Leica TCS SP5 II) and quantified for neuronal cell number and axonal dimensions using Imaris (Bitplane, version 9.5). […]

With `COc1ccc2[nH]cc(CCNC(C)=O)c2c1` [melatonin] the “diurnal rhythmicity (activity, ratio between dark and light)” value [1] was “completely restored; also recorded: rescued”.

Cobra venom factor was tested, and the “neurite outgrowth (axon length, branching points)” value [2] was “rescued” and the “neuronal cell loss (neuronal cell number per field of view)” value [2] was “effectively prevented”.
